Laboratory results reported in patent US9527849B2, “Salt and polymorph of pyrazolopyrimidinone compound, and pharmaceutical composition containing the same, preparation method and use thereof” (TOPHARMAN SHANGHAI CO., LTD., priority 2011, dated 2016).
Entries after “also recorded” stand apart in the source; their conditions may differ. Counter-ions that a name gives are not always drawn. Like-named read-outs stand apart in the source and are kept apart here. Values belong to the compound of their own block, whether it stands above or below them.

Assays:
[1] = Hygroscopicity, moisture weight gain in desiccator; type: physicochemical; details: for Moisture weight gain (%): relative humidity 92.5%, 48 hours, room temperature
Method: The hygroscopicities of various salts of compound Z were studied. A certain amount of the sample was placed in a precisely-weighted glass weighing bottle with a stopper to accurately weight. Then the open glass weighing bottle was placed in a desiccator (the saturated potassium nitrate solution was placed at the lower part of the desiccator, the relative humidity was 92.5%) and stood for 48 hours at room temperature. And then the glass weighing bottle was covered with the stopper and weighted again. The absorbent weight can be calculated.

[2] = Impact factor stability test (high temperature, high humidity, light exposure); type: physicochemical; details: for chemical stability (in words): high temperature, high humidity
Excerpt: The basic compounds of compound Z and the maleate thereof were selected to compare the chemical stability through an impact factor test, and results were shown in Table 8: […]

[3] = Comparison of solubility in water and buffer solutions; type: physicochemical; details: for solubility (in words): in water and in other solvents; for solubility: thermodynamic from solid
Method: The basic compound Z and various salts of compound Z were selected to compare the solubility. Appropriate amount of sample was weighed, placed in glass tubes. The predetermined solvent was added gradually and the extension of clear of the solution was observed. The solvent included the follows: pure water (pH 6.2), hydrochloric acid solution (pH1.0), a standard potassium hydrogen phthalate buffer solution (pH 4.0), and a mixed phosphate buffer solution (pH 6.86).

[4] = Comparison of appearance, characters and odor; type: physicochemical
Excerpt: The basic compound Z and various salts of compound Z were selected to compare the appearance and characters.

[5] = system: rats cavernous body pressure/arterial blood pressure (ICP/BP); test: Erectile dysfunction (ED) efficacy trial in vivo in rats, method of WO2007056955; details: Dose 10 mg/kg, after the administration
[6] = target: PDE8; test: In vitro activity against PDE isoenzyme; type: biochemical; details: for IC50: PDE8
[7] = target: PDE7; test: In vitro activity against PDE isoenzyme; type: biochemical; details: for IC50: PDE7
[8] = target: PDE2 (Homo sapiens, UniProt O00408); test: In vitro activity against PDE isoenzyme; type: biochemical
[9] = system: rats with pulmonary arterial hypertension; test: Pulmonary arterial hypertension (PAH) rats, single intravenous administration; type: in vivo; details: single intravenous administration of 1 mg/kg, FIG. 18
Excerpt: (§1) The effects of maleate of compound Z on pulmonary artery pressure of pulmonary arterial hypertension rats were studied according to the method described in the reference (J Pharmacol Sci, 111, 235-243 (2009)).

[10] = target: PDE6; test: In vitro activity against PDE isoenzyme; type: biochemical
[11] = system: rats with pulmonary arterial hypertension; test: Pulmonary arterial hypertension (PAH) rats, chronic oral administration; type: in vivo; details: each dose group, FIG. 17
Excerpt: as §1

[12] = target: PDE3; test: In vitro activity against PDE isoenzyme; type: biochemical
[13] = system: cavernous pressure in rats; test: Cavernous pressure in rats induced by electric stimulus to the erectile nerve (ED); type: in vivo; details: rat, 2.50-5.00 mg/kg through duodenum; FIG. 19
Excerpt: The effect of maleate of compound Z on the cavernous pressure variation in rats induced by the electric stimulus to the erectile nerve was studied according to the method described in the reference (International Journal of Impotence Research (2002) 14, 251-255).

[14] = target: PDE9 (Homo sapiens, UniProt O76083); test: In vitro activity against PDE isoenzyme; type: biochemical
[15] = target: PDE1; test: In vitro activity against PDE isoenzyme; type: biochemical; details: for IC50: PDE1
[16] = Comparison of salts and crystalline forms (crystal water, static, stability, component, crystalline form); type: physicochemical
[17] = target: PDE4; test: In vitro activity against PDE isoenzyme; type: biochemical; details: for IC50: PDE4
[18] = target: PDE5 (Homo sapiens, UniProt O76074); test: In vitro activity against PDE isoenzyme; type: biochemical
[19] = target: PDE10 (Homo sapiens, UniProt Q9Y233); test: In vitro activity against PDE isoenzyme; type: biochemical
[20] = target: PDE11 (Homo sapiens, UniProt Q9HCR9); test: In vitro activity against PDE isoenzyme; type: biochemical
[21] = High temperature, 5 days, listed as Compound Z (basic)
[22] = High temperature, 10 days, listed as Compound Z (basic)
[23] = Light exposure, 5 days, listed as Compound Z (basic)
[24] = Light exposure, 10 days, listed as Compound Z (basic)

Sequence of PDE11 (Q9HCR9 whole entry): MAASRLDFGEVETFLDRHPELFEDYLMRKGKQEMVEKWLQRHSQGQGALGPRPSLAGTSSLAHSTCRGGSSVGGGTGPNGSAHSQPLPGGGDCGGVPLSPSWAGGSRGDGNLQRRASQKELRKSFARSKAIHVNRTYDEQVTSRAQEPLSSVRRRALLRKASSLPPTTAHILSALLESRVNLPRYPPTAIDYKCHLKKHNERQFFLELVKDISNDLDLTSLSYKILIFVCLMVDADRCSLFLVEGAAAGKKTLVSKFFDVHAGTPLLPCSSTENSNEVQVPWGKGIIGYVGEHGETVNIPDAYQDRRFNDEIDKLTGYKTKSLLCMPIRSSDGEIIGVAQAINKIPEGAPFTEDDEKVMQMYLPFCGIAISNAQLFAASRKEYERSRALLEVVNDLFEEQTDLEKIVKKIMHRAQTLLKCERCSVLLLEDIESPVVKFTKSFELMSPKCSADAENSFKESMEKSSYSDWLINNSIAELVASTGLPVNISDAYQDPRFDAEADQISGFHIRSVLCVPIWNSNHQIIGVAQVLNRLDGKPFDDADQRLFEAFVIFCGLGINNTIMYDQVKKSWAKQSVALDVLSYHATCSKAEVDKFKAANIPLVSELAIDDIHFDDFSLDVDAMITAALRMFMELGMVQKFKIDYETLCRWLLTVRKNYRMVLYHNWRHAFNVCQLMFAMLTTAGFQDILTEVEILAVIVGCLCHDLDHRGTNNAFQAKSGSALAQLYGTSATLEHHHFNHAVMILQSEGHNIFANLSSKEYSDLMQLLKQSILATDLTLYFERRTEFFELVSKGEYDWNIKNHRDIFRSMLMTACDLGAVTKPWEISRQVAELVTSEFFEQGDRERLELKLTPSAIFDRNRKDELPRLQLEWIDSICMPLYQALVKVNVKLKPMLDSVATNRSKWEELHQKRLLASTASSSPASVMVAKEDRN
Sequence of PDE2 (O00408 whole entry): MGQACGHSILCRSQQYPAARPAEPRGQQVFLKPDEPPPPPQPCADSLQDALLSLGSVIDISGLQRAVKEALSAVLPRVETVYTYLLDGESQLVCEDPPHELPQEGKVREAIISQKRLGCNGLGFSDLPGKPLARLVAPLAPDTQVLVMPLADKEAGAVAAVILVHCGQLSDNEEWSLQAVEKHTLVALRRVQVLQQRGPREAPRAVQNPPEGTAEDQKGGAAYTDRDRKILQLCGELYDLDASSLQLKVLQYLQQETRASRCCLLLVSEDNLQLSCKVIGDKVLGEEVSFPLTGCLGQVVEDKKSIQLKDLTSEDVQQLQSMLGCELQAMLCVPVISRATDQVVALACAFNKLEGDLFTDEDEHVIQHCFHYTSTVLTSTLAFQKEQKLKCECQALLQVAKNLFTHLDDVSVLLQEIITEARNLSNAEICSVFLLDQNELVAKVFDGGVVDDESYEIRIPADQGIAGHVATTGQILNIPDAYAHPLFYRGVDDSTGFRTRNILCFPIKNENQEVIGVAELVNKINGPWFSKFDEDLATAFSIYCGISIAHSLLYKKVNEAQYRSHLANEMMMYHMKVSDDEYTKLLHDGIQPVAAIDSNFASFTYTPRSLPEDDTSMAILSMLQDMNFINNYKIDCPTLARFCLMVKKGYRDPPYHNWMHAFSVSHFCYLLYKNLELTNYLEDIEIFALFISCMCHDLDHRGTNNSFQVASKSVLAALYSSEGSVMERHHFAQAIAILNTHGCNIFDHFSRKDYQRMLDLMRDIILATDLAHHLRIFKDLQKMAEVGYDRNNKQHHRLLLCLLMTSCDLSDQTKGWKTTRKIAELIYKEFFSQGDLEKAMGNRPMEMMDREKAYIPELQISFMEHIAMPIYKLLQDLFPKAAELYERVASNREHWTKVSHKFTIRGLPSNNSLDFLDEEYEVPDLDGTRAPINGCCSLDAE
Sequence of PDE10 (Q9Y233 whole entry): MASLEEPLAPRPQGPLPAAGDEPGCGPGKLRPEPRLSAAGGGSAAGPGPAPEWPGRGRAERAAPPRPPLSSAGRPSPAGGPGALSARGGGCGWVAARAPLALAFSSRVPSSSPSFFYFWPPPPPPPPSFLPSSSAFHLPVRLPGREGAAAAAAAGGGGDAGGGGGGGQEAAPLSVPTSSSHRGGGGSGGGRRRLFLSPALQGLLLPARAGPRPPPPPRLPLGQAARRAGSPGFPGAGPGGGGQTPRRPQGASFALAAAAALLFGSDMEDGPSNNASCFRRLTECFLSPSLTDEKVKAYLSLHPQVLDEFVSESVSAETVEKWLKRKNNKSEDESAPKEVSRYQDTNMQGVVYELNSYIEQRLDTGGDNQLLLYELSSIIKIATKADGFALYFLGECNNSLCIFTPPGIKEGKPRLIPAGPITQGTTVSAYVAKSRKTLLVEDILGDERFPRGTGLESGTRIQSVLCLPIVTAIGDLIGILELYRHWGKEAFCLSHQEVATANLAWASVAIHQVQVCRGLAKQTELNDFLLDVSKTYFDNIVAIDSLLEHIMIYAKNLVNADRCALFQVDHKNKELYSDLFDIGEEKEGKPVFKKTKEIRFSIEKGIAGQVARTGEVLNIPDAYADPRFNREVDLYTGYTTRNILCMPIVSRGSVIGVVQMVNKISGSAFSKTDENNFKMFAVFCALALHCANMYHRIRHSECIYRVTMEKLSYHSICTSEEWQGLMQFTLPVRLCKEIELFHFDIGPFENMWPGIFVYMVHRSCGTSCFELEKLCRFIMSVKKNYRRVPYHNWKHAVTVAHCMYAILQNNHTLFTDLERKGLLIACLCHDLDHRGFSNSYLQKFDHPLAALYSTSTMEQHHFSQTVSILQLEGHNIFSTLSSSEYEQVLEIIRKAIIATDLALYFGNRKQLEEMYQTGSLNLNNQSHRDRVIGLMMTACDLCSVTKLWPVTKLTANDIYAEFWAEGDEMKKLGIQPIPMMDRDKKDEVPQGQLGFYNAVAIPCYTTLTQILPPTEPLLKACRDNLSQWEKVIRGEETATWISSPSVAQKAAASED
Sequence of PDE9 (O76083 whole entry): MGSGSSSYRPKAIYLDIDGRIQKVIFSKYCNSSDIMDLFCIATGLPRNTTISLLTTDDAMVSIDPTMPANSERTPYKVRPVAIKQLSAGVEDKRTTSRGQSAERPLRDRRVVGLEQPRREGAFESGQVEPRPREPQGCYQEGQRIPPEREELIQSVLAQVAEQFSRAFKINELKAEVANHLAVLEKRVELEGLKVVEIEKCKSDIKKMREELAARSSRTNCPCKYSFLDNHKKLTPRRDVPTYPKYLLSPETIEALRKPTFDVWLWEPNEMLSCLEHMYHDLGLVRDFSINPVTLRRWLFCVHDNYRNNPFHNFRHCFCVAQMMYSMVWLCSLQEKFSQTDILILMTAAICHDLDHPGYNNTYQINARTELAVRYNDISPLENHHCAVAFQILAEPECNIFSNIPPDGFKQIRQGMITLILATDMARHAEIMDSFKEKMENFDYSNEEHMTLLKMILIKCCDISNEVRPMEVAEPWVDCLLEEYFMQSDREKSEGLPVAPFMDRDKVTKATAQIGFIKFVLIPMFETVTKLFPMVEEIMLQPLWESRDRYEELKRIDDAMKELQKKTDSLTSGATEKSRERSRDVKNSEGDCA

Compound: 1-methyl-5-{2-propoxy-5-[[1-methyl-1-(2-pyrrolidin-1-yl)ethyl]aminosulfonyl]phenyl}-3-propyl-1,6-dihydro-7H-pyrazolo[4,3-D]pyrimidin-7-one maleate
hygroscopicity (in words) [1]: low moisture absorption; also recorded: no hygroscopicity

Compound: CCCOc1ccc(S(=O)(=O)N(C)CCN2CCCC2)cc1-c1nc2c(CCC)nn(C)c2c(=O)[nH]1 [Compound Z, 1-methyl-5-{2-propoxy-5-[[1-methyl-1-(2-pyrrolidin-1-yl)ethyl]aminosulfonyl]phenyl}-3-propyl-1,6-dihydro-7H-pyrazolo[4,3-d]pyrimidin-7-one]
trait ([2]; 0 day): white | purity ([2]; 0 day, listed as Compound Z (basic)): 98.25% | trait ([2]; High humidity, 5 days): white | purity ([2]; High humidity, 5 days, listed as Compound Z (basic)): 98.02% | trait ([2]; High humidity, 10 days): white | purity ([2]; High humidity, 10 days, listed as Compound Z (basic)): 98.20% | purity [2, 21]: 94.70% | trait [2, 21]: pale yellow | purity [2, 22]: 94.55% | trait [2, 22]: yellow | purity [2, 23]: 72.49% | trait [2, 23]: pale yellow | purity [2, 24]: 55.88% | trait [2, 24]: pale yellow | chemical stability (in words) ([2]; light exposure): poor chemical stability | chemical stability (in words) ([2]; light exposure, listed as basic compound Z): poor stability | degradation ([2]; light exposure, after 10 days): ~50% | Moisture weight gain (%) ([1]; listed as Basic compound Z): 0.39% | Solubility, Pure water (pH 6.1) ([3]; Pure water (pH 6.1), listed as Compound Z (basic)): insoluble | Solubility, hydrochloric acid solution (pH 1.0) ([3]; hydrochloric acid solution (pH 1.0), listed as Compound Z (basic)): >21 mg/ml | solubility (in words) [3]: poor water-solubility | solubility (in words) ([3]; listed as basic compound Z): significantly less | Solubility, buffer solution (pH 6.86) ([3]; mixed phosphate buffer solution (pH 6.86), listed as Compound Z (basic)): insoluble | solubility ([3]; standard potassium hydrogen phthalate buffer solution, pH 4, aqueous buffer, potassium hydrogen phthalate buffer solution (pH 4.0), read-out: Solubility, buffer solution (pH 4.0)): > 5.88 mg/mL | Characters [4]: white solid | Odor [4]: pungent odor | Odor ([4]; listed as compound Z): pungent odor | ICP/BP increasing rate (%) ([5]; listed as basic compound Z, 10 mg/kg): 72.22 ± 19.28 %

Compound: CCCc1nn(C)c2c(=O)[nH]c(-c3cc(S(=O)(=O)N4CCN(C)CC4)ccc3OCC)nc12 [Sildenafil, reference compound]
IC50 [6]: > 100 µM | IC50 [7]: 46.9 µM | IC50 [15]: 0.46 µM | IC50 [17]: 5.83 µM | ICP/BP increasing rate (%) [5]: 73.10 ± 36.24 %

More lines, main results first:

melting point: 162.5 to 163.3 °C
Compound: CCCOc1ccc(S(=O)(=O)N(C)CCN2CCCC2)cc1-c1nc2c(CCC)nn(C)c2c(=O)[nH]1 (as salt: maleate) [Maleate of compound Z, 1-methyl-5-{2-propoxy-5-[[1-methyl-1-(2-pyrrolidin-1-yl)ethyl]aminosulfonyl]phenyl}-3-propyl-1,6-dihydro-7H-pyrazolo[4,3-D]pyrimidin-7-one maleate]

IC50 [6]: > 100 µM | IC50(PDEs)/IC50(PDE5) ([6]; PDE8 vs PDE5): >10000 | IC50 [7]: > 100 µM | IC50(PDEs)/IC50(PDE5) ([7]; PDE7 vs PDE5): >10000 | purity ([2]; 0 day): 99.79% | trait ([2]; 0 day): white | purity ([2]; High humidity, 5 days): 99.79% | trait ([2]; High humidity, 5 days): white | purity ([2]; High humidity, 10 days): 99.80% | trait ([2]; High humidity, 10 days): white | purity ([2]; High temperature, 5 days): 99.69% | trait ([2]; High temperature, 5 days): white | purity ([2]; High temperature, 10 days): 99.76% | trait ([2]; High temperature, 10 days): white | purity ([2]; Light exposure, 5 days): 99.65% | trait ([2]; Light exposure, 5 days): white | purity ([2]; Light exposure, 10 days): 99.68% | trait ([2]; Light exposure, 10 days): white | chemical stability (in words) ([2]; light exposure): stable | IC50 ([8]; PDE2): > 100 µM | IC50(PDEs)/IC50(PDE5) ([8]; PDE2 vs PDE5): >10000 | IC50 ([10]; PDE6): 0.0452 µM | IC50(PDEs)/IC50(PDE5) ([10]; PDE6 vs PDE5): 20 | IC50 ([12]; PDE3): 22 µM | IC50(PDEs)/IC50(PDE5) ([12]; PDE3 vs PDE5): 9649 | IC50 ([14]; PDE9): > 100 µM | IC50(PDEs)/IC50(PDE5) ([14]; PDE9 vs PDE5): >10000 | hygroscopicity (in words) [1]: minimal hygroscopicity | Moisture weight gain (%) [1]: 1.56% | IC50 [15]: 0.462 µM | IC50(PDEs)/IC50(PDE5) ([15]; PDE1 vs PDE5): 203 | solubility ([3]; hydrochloric acid solution, pH 1, simulated gastric fluid, hydrochloric acid solution (pH 1.0), read-out: Solubility, hydrochloric acid solution (pH 1.0)): > 42 mg/mL | solubility ([3]; mixed phosphate buffer solution, pH 6.86, aqueous buffer, mixed phosphate buffer solution (pH 6.86), read-out: Solubility, buffer solution (pH 6.86)): > 19.8 mg/mL | solubility ([3]; pure water, pH 6.1, water, Pure water (pH 6.1), read-out: Solubility, Pure water (pH 6.1)): > 11 mg/mL | Characters [4]: white solid | Odor [4]: no bad smell | component [16]: constant | crystal water [16]: no | stability [16]: stable | static [16]: no | IC50 [17]: 4.07 µM | IC50(PDEs)/IC50(PDE5) ([17]; PDE4 vs PDE5): 1785 | IC50 ([18]; PDE5): 0.00228 µM | activity and selectivity for PDE5 enzyme (in words) ([18]; in vitro enzyme inhibitors screening test): high activity and selectivity | IC50 ([19]; PDE10): > 100 µM | IC50(PDEs)/IC50(PDE5) ([19]; PDE10 vs PDE5): >10000 | IC50 ([20]; PDE11): 6.09 µM | IC50(PDEs)/IC50(PDE5) ([20]; PDE11 vs PDE5): 2671
Compound: CCCOc1ccc(S(=O)(=O)N(C)CCN2CCCC2)cc1-c1nc2c(CCC)nn(C)c2c(=O)[nH]1 [Maleate of compound Z, 1-methyl-5-{2-propoxy-5-[[1-methyl-1-(2-pyrrolidin-1-yl)ethyl]aminosulfonyl]phenyl}-3-propyl-1,6-dihydro-7H-pyrazolo[4,3-D]pyrimidin-7-one maleate]
mean aortic pressure [9]: significantly reduce | mean pulmonary artery pressure [9]: significantly reduce | selectivity for the reduction of pulmonary artery pressure [9]: strong selectivity | pulmonary arterial pressure compared with the model group [11]: significantly reduce | pulmonary arterial pressure compared with the positive control group [11]: no significant difference | ICP value (cavernous peak pressure) [13]: significantly increased | ICP/BP values (cavernous peak pressure/carotid arterial blood pressure) [13]: significantly increased | ICP/BP increasing rate (%) ([5]; 10 mg/kg): 80.99 ± 17.01 %
